Among the data in patent publication US11286268B1, “EIF4E-inhibiting compounds and methods” (EFFECTOR THERAPEUTICS, INC., priority 2019, dated 2022) are IC50 values, retold here.

Where two headings read alike, the source gives them in different places.

For the assay, the target named is recombinant eIF4E (Homo sapiens (Human), UniProt P06730). In words: Fluorescence polarization competition assay for eIF4E binding potency. The method in brief:
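Competitive displacement format: compounds compete with a fluorescent m7GDP tracer (20 nM) for 75 nM recombinant eIF4E. Incubation is 30 min at room temperature, protected from light, with 1% DMSO. Polarization read gives IC50 over eight 3-fold concentrations.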
Background: In fluorescence polarisation assays a small probe gives low polarisation when free and higher when bound to something large.

[1] abbreviates: inhibition of eIF4E/EDA-m7GDP-ATTO-550 binding, calculated IC50 values, Table 4B, read-out: IC50.
[2] abbreviates: fluorescence polarization competition, 75 nM recombinant eIF4E, 20 nM EDA-m7GDP-ATTO-550, IC50 class, read-out: elF4E FP.
[3] abbreviates: inhibition of eIF4E/EDA-m7GDP-ATTO-550 binding by 50%, Table 4B calculated values, read-out: IC50.

recombinant eIF4E, sequence (P06730 whole entry): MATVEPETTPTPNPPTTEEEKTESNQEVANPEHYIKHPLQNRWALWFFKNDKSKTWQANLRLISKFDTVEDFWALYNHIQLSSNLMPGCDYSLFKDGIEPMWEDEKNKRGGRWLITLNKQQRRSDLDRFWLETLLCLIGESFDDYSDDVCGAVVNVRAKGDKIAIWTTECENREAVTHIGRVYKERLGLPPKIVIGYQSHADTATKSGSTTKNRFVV

Regarding `Cc1nc2cnc(N(C)C3CCN(C(C)(C)CF)CC3)c(C#N)c2c(=O)n1CCOc1ccc(Cl)cc1-c1ccnc2c(C(=O)O)csc12` [compound 1429], the IC50 under setting [1] is 17.8 nM. On to `Cc1nc2cc(Cl)c(C(F)F)c(C#N)c2c(=O)n1CCOc1ccc(Cl)cc1-c1ccnc2c(C(=O)O)csc12` [compound 119], for which the IC50 is, setting by setting: under setting [2], less than 50 nM; under setting [3], 19.9 nM. For the compound `Cc1nc2cnc(N(C)C3CCCCC3)c(C#N)c2c(=O)n1CC#Cc1ccc(Cl)cc1-c1ccnc2c(C(=O)O)csc12` [compound 1120], the IC50 reads like this: under setting [2], less than 50 nM; under setting [3], 9.51 nM. The matching figures for `Cc1nc2cnc(N(C)C3CCN(CC(F)(F)C(F)(F)F)CC3)c(C#N)c2c(=O)n1CC#Cc1ccc(Cl)cc1-c1ccnc2c(C(=O)O)csc12` [compound 1119]: less than 50 nM and 14.6 nM. For `Cc1cc(-c2cc(Cl)ccc2OCCn2c(C)nc3cc(Cl)c(-c4cccnc4)c(C#N)c3c2=O)c2scc(C(=O)O)c2n1` [compound 653], in that order: less than 50 nM and 22.7 nM. Turning to `Cc1nc2cc(C(F)(F)F)c(N3CCN(CC(F)F)CC3)nc2c(=O)n1CC#Cc1ccc(Cl)cc1-c1ccnc2c(C(=O)O)csc12` [compound 1290], under setting [1], the IC50 is 149 nM. As for `Cc1cc(-c2cc(Cl)ccc2OCCn2c(C)nc3cc4c(c(C#N)c3c2=O)CN(C)C4)c2scc(C(=O)O)c2n1` [compound 712], the IC50 under setting [2] is less than 50 nM and the IC50 under setting [3] was 19.6 nM. For `Cc1nc2cnc(N(C)C3CCN(CC(F)(F)C4(O)CCC4)CC3)c(C#N)c2c(=O)n1CC#Cc1ccc(Cl)cc1-c1ccnc2c(C(=O)O)csc12` [compound 1598], under setting [1], the IC50 was 37.5 nM. On the same count and under the same terms, the figure for `Cc1nc2cnc(N(C)C3CCN([C@H]4C[C@H](F)C4)CC3)c(C#N)c2c(=O)n1CC#Cc1ccc(Cl)cc1-c1ccnc2c(C(=O)NS(=O)(=O)c3ccncc3)csc12` [compound 1792] is 9.24 nM.

As to `Cc1cc(-c2cc(Cl)ccc2OCCn2c(C)nc3c(F)cc(C(F)F)c(C#N)c3c2=O)c2scc(C(=O)NS(C)(=O)=O)c2n1` [compound 566], the IC50 under setting [2] was less than 50 nM and the IC50 under setting [3] is 16.4 nM.

Take `CCN(c1ncc2nc(C)n(CC#Cc3ccc(Cl)cc3-c3ccnc4c(C(=O)NS(=O)(=O)C5CCC5)csc34)c(=O)c2c1C#N)C1CCN(C2COC2)CC1` [compound 1748]: the IC50 under setting [1] is 17.5 nM. With `Cc1nc2cc(C(F)(F)F)cc(C#N)c2c(=O)n1CCOc1ccc(Cl)cc1-c1ccnc2cc(C(=O)O)sc12` [compound 199], the IC50 by setting is: under setting [2], 50 to 1000 nM; under setting [3], 143 nM. As for `Cc1nc2cnc(N3CCN(C(C)(C)C)CC3)c(C#N)c2c(=O)n1CCOc1ccc(Cl)cc1-c1ccnc2c(C(=O)O)csc12` [compound 1313], under setting [1], the IC50 was 42.6 nM. Turning to `Cc1nc2cnc(N3CC4(CC(N(C)C5CC5)C4)C3)c(C#N)c2c(=O)n1CC#Cc1ccc(Cl)cc1-c1ccnc2c(C(=O)O)csc12` [compound 830], the IC50 under setting [2] is less than 50 nM and the IC50 under setting [3] was 12.8 nM. On to `Cc1cc(-c2cc(Cl)ccc2OCCn2c(C)nc3cc(C(F)(F)F)c(-c4ncc(F)cn4)c(C#N)c3c2=O)c2scc(C(=O)O)c2n1` [compound 966], for which the IC50 under setting [2] was less than 50 nM and the IC50 under setting [3] is 3.58 nM. The matching figures for `C#Cc1c(C(=O)O)cccc1-c1cc(Cl)ccc1OCCn1c(C)nc2ccc(C(F)F)c(C#N)c2c1=O` [compound 55]: less than 50 nM and 21.6 nM. The matching figures for `Cc1cc(-c2cc(Cl)ccc2OCCn2c(C)nc3cc(OC(F)F)c(F)c(C#N)c3c2=O)c2scc(C(=O)O)c2n1` [compound 585]: less than 50 nM and 29.6 nM. As for `Cc1nc2c(N3CCN(C4(C(F)F)COC4)CC3)ncc(C#N)c2c(=O)n1CCOc1ccc(Cl)cc1-c1ccnc2c(C(=O)O)csc12` [compound 1397], the IC50 under setting [1] is 14.7 nM.

Take `Cc1nc2cc(C(F)(F)F)c(N3CCN(c4ccccn4)CC3)c(C#N)c2c(=O)n1CCOc1ccc(Cl)cc1-c1cccc(C(=O)O)c1` [compound 379]: the IC50 is, setting by setting: under setting [2], less than 50 nM; under setting [3], 26.7 nM. The matching figures for `Cc1cc(-c2cc(Cl)ccc2OCCn2c(C)nc3cc(C(F)(F)F)c(-c4cccnc4C)c(C#N)c3c2=O)c2scc(C(=O)O)c2n1` [compound 735]: 50 to 1000 nM and 58 nM. Take `Cc1nc2cnc(N(C)[C@H]3CC[C@H](CN(C)CC(C)(F)F)CC3)c(C#N)c2c(=O)n1CC#Cc1ccc(Cl)cc1-c1ccnc2c(C(=O)O)csc12` [compound 1583]: the IC50 under setting [1] was 58.2 nM. `Cc1cc(-c2cc(Cl)ccc2OCCn2c(C)nc3cc(C(F)(F)F)ccc3c2=O)c2scc(C(=O)O)c2n1` [351b]: the IC50 under setting [3] is 93.6 nM.

In the case of `CCc1cc(-c2cc(Cl)ccc2OCCn2c(C)nc3c(C)nc(-c4ccccc4)c(C#N)c3c2=O)c2scc(C(=O)O)c2n1` [compound 1015], the IC50 is less than 50 nM under setting [2] and 19.7 nM under setting [3].

Turning to `Cc1cc(-c2cc(Cl)ccc2OCCn2c(C)nc3c(C)ncc(C#N)c3c2=O)c2scc(C(O)(O)C(F)(F)F)c2n1` [compound 732], the IC50 by setting is: under setting [2], 50 to 1000 nM; under setting [3], 874 nM. Regarding `Cc1cc(-c2cc(Cl)ccc2OCCn2c(C)nc3c(-c4ccccc4)ncc(C#N)c3c2=O)c2scc(C(=O)O)c2n1` [compound 1378], under setting [1], the IC50 is 30 nM. Regarding `Cc1cc(-c2cc(Cl)c(F)cc2OCCn2c(C)nc3cc(C(F)(F)F)cc(C#N)c3c2=O)c2scc(C(=O)O)c2n1` [compound 571], the IC50 under setting [2] was in the range of 50 to 1000 nM and the IC50 under setting [3] is 54.8 nM. As for `CCN(c1ncc2nc(C)n(CC#Cc3ccc(Cl)cc3-c3ccnc4c(C(=O)NS(C)(=O)=O)csc34)c(=O)c2c1C#N)C1CCN(C2CC(F)(F)C2)CC1` [compound 1601], the IC50 under setting [1] is 8.05 nM. For the compound `O=C(O)c1cccc(-c2cc(Cl)ccc2OCCn2nnc3ccccc3c2=O)c1` [compound 1991], the IC50 under setting [1] was more than 300000 nM. In the case of `N#Cc1cc(C(F)(F)F)cc2ncn(CCOc3ccc(Cl)cc3-c3ccnc4c(C(=O)O)csc34)c(=O)c12` [compound 164], under setting [3], the IC50 was 16.4 nM. As for `Cc1nc2cnc(N3CCN(C(C)C)CC3)c(C#N)c2c(=O)n1CC#Cc1ccc(Cl)cc1-c1ccnc2c(C(=O)O)csc12` [compound 1637], under setting [1], the IC50 is 17.7 nM. For the compound `Cc1nc2cc(C(F)(F)F)cc(C#N)c2c(=O)n1CCOc1ccc(Cl)cc1-c1cc(CO)nc2c(C(=O)O)csc12` [compound 484], the IC50 was less than 50 nM under setting [2] and 11.6 nM under setting [3]. Turning to `Cc1cc(-c2c(C(F)F)cc3nc(C)n(CCOc4ccc(Cl)cc4-c4cc(C)nc5c(C(=O)O)csc45)c(=O)c3c2C#N)ccn1` [compound 1386], the IC50 under setting [1] is 12.8 nM.

With `N#Cc1cc(C(F)(F)F)cc2c(Cl)c(Cl)n(CCOc3ccc(Cl)cc3-c3ccnc4c(C(=O)O)csc34)c(=O)c12` [compound 46], the IC50 is 50 to 1000 nM under setting [2] and 67.2 nM under setting [3]. Regarding `Cc1cc(-c2cc(Cl)ccc2OCCn2c(C)nc3cc(C(F)(F)F)c(N4CCN(C)CC4)c(C#N)c3c2=O)c2sc(C)c(C(=O)O)c2n1` [compound 1416], the IC50 under setting [1] was 12.7 nM.

Turning to `Cc1nc2cnc(N(C)C3CCN(C(C)CF)CC3)c(C#N)c2c(=O)n1CC#Cc1ccc(Cl)cc1-c1ccnc2c(C(=O)O)csc12` (stereo not drawn) [compound 1508], the IC50 under setting [1] is 17.4 nM. For `Cc1nc2cnc(N3CCN(C4CC(F)(F)C4)CC3)c(C#N)c2c(=O)n1CC#Cc1ccc(Cl)cc1-c1ccnc2c(C(=O)O)csc12` [compound 1163], the IC50 under setting [2] was less than 50 nM and the IC50 under setting [3] is 24.8 nM.

Consider `Cc1nc2cnc(N3C[C@H]4CN(CC(F)F)C[C@H]4C3)c(C#N)c2c(=O)n1CCOc1ccc(Cl)cc1-c1ccnc2c(C(=O)O)csc12` [compound 1478], for which the IC50 under setting [1] was 13 nM. Regarding `Cc1nc2cnc(N(C)C3CCN(CC(F)(F)F)CC3)c(C#N)c2c(=O)n1CCOc1ccc(Cl)cc1-c1ccnc2c(C(=O)NS(C)(=O)=O)csc12` [compound 1157], the IC50 under setting [2] is less than 50 nM and the IC50 under setting [3] was 22 nM.

On to `Cn1ccc2c(=O)n(CCOc3ccc(Cl)cc3-c3cccc(C(=O)O)c3)cnc21` [compound 68], for which the IC50 is, setting by setting: under setting [2], more than 1000 nM; under setting [3], 64300 nM. The matching figures for `N#Cc1cc(C(=O)O)cc(-c2cc(Cl)ccc2OCCn2cnc3cnc(C#N)cc3c2=O)c1` [compound 93]: more than 1000 nM and 1400 nM. The matching figures for `Cc1c(CC#Cc2ccc(Cl)cc2-c2ccnc3c(C(=O)O)csc23)c(=O)c2c(C#N)c(Cl)c(C(F)(F)F)cc2n1C` [compound 669]: less than 50 nM and 36.4 nM.

With `Cc1cc(-c2cc(Cl)ccc2OCCn2c(C)nc3c(F)cc(CCN(C)C)c(C#N)c3c2=O)c2scc(C(=O)O)c2n1` [compound 608], the IC50 was less than 50 nM under setting [2] and 18.6 nM under setting [3]. The matching figures for `Cc1cc(-c2cc(Cl)ccc2OCCn2c(C)nc3cc(C(F)(F)F)c(OCC(F)(F)F)c(C#N)c3c2=O)c2scc(C(=O)O)c2n1` [compound 1074]: less than 50 nM and 17.4 nM. Regarding `Cc1nc2cc(C(F)(F)F)c(Cl)c(C#N)c2c(=O)n1CCOc1ccc(Cl)cc1-c1ccnc2c(C(=O)O)csc12` [compound 1904], under setting [1], the IC50 was 36.9 nM. In the case of `Cc1cc(-c2cc(Cl)ccc2OCCn2c(C)nc3cc(C)c(CN4CCN(C)CC4)c(C#N)c3c2=O)c2scc(C(=O)O)c2n1` [compound 718], the IC50 by setting is: under setting [2], less than 50 nM; under setting [3], 20.1 nM. The matching figures for `Cc1cc(-c2cc(Cl)ccc2OCCn2c(C)nc3cnc(N4CC(C)(O)C4)c(C#N)c3c2=O)c2scc(C(=O)O)c2n1` [compound 1057]: less than 50 nM and 12.5 nM. Take `Cc1nc2cnc(N3CCN(CC(F)(F)F)CC3)c(C#N)c2c(=O)n1CC#Cc1ccc(Cl)cc1-c1ccnc2c(C(=O)O)csc12` [compound 860]: the IC50 under setting [2] is less than 50 nM and the IC50 under setting [3] was 10.3 nM.
